Legend:
[1] = biological target: T1, 20S proteasome subunit β5 vs immunoproteasome subunit LMP7 in RPMI-8226 cells (Homo sapiens, UniProt P28062+P28074); experiment: ELISA-based active site assay in RPMI-8226 cells (ELISA ratio); assay type: cell-based; details: for Elisa ratio (beta5:LMP7): EC50 ratio with β5 antibody to LMP7 antibody, RPMI-8226 cells, >1 = prefers immunoproteasome
T1 construct: Cells expressing approximately equivalent amounts of immuno- and constitutive proteasome (e.g., RPMI-8226) are treated with test compound; endogenous in cells; host or cells: RPMI-8226 multiple myeloma cells
T1 sequence (P28074 60-263): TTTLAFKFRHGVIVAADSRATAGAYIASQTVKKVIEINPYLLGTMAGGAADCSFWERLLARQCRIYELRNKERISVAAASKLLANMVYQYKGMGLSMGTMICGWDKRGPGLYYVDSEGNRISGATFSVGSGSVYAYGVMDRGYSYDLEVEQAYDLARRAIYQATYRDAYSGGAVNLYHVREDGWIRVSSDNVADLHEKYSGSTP
T1 sequence (P28062 73-276): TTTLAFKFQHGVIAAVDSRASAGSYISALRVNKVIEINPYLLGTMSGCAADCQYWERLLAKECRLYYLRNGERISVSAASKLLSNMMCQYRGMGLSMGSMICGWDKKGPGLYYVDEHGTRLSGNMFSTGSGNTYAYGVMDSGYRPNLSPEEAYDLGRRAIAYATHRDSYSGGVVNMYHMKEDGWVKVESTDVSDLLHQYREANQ
Description: Lastly, a more cell-based approach can be utilized. Cells expressing approximately equivalent amounts of immuno- and constitutive proteasome (e.g., RPMI-8226) are treated with test compound, followed by the method for determining the activity of a proteasome inhibitor as described in application Ser. No. 11/254,541. The ratio of the EC50 generated in the ELISA-based assay using β5 antibody and LMP7 antibodies (ELISA ratio) provides the basis for determining the inhibitory preference of the test compound. […] In all three assays, a ratio of less than one denotes the molecule inhibits the CT-L activity of the constitutive proteasome better than that of the immunoproteasome. Ratios greater than one signifies the molecule inhibits chymotrypsin-like activity of the immunoproteasome better than that of the constitutive proteasome.
A suitable ELISA assay may be found in U.S. patent application Ser. No. 11/254,541, incorporated herein in its entirety. Briefly, RPMI-8226 cells were treated with 0.1 nM to 1 μM of proteasome Inhibitor B. The samples were then washed with phosphate-buffered saline (PBS) and lysed in hypotonic buffer (20 mM Tris pH 8, 5 mM EDTA) (Tris-HCl and EDTA are available from Teknova, Inc., Hollister, Calif.). Cellular debris was removed by centrifugation at 14,000 rpm in a microfuge (4° C.) for 2 min. The supernatant was transferred to a fresh tube, snap frozen in liquid nitrogen and stored at −80° C. After thawing on ice, the samples (30 μl for assays run in triplicate) were treated with 500 nM of Inhibitor A for 1 hr at room temperature. Following treatment with Inhibitor A, the lysate was denatured by addition of seven volumes of 1% SDS (210 μl) (available from Bio-Rad, Hercules, Calif.) and heating at 99° C. with vigorous shaking for 5 min. The sample was allowed to cool and two volumes (60 μl) of 10% Triton X-100 (available from Bio-Rad, Hercules, Calif.) was added.
Streptavidin sepharose beads (6.5 μl/well) (available from Amersham Biosciences, Piscataway, N.J.), were washed three times with 1 ml PBS (available from Mediatech, Inc., Herndon, Va.) in a microcentrifuge tube. The beads were resuspended in ELISA wash/block buffer (PBS+0.1% Tween 20+1% bovine serum albumin; 20 μl/well) and transferred to the wells of a 96 well filter plate (BSA is available from Sigma, St. Louis, Mo.; Tween is available from Calbiochem, San Diego, Calif.). Denatured whole blood or PBMC lysates that were treated with Inhibitor 3 were added to the filter plate wells containing the streptavidin sepharose beads (each sample assayed in triplicate) and incubated for 1 hr at room temperature with shaking (MultiScreen-DV Opaque Plates with low protein binding durapore membrane; available from Millipore, Billerica, Mass.). The unbound material was removed by gentle filtration and the beads were washed six times with ELISA wash/block buffer (200 μl each).
Primary antibody to human 20S proteasome subunit (35 (rabbit polyclonal antibody; available from Biomol, Plymouth Meeting, Pa.) or human 20S immunoproteasome subunit LMP7 (rabbit polyclonal antibody; available from Affinity BioReagents, Golden, Colo.) was diluted 1:1000 in ELISA wash/block buffer, added to the beads (100 μl/well), and incubated for 1 hr at room temperature on an orbital shaker. The beads were washed six times with ELISA wash/block buffer with gentle filtration. Secondary antibody treatment (1:5000) and washing are as described for primary antibody (goat anti-rabbit antibody-HRP conjugate; available from Biosource, Camarillo, Calif.). The beads were then resuspended in 100 μl chemiluminescent detection reagent (Super Signal Pico Chemiluminescent Substrate™; available from Pierce, Rockford, Ill.) and luminescence was read on a Tecan plate reader. […]

[2] = system: chymotryptic-like activity of isolated 20S constitutive proteasome vs immunoproteasome; experiment: Enzyme kinetic assay with isolated 20S proteasome preps, EC50 ratio of CT-L activity (20S ratio); assay type: biochemical; details: constitutive proteasome to immunoproteasome, >1 = prefers immunoproteasome
Excerpt: Enzyme kinetic assays such as those disclosed in U.S. application Ser. No. 09/569,748, Example 2 and Stein et al., Biochem. (1996), 35, 3899-3908 use isolated 20S proteasome preps with greater than 90% constitutive proteasome subunits or immunoproteasome subunits. The inhibitory preference of the molecule is then based on the EC50 ratio of the chymotryptic-like activity of the constitutive proteasome to that of the immunoproteasome (20S ratio).

[3] = biological target: T2, 26S proteasome CT-L activity in lysate of HT29 (constitutive) vs Sultan/Thp1 (immunoproteasome) cells (Homo sapiens, UniProt P28062+P28074); experiment: CT-L EC50 with 26S proteasome in cell lysate (Lysate ratio); assay type: biochemical; details: HT29 lysate to Sultan/Thp1 lysate, >1 = prefers immunoproteasome
T2 construct: using 26S proteasome in the context of a cell lysate; endogenous in cells; host or cells: HT29 lysate (constitutive); Sultan or THP1 lysate (immunoproteasome)
T2 sequence (P28074 60-263): T1 sequence (P28074 60-263)
T2 sequence (P28062 73-276): T1 sequence (P28062 73-276)
Description: Alternatively, the CT-L EC50 of a compound can be determined using 26S proteasome in the context of a cell lysate. Compound is added to lysate generated from cells that either predominantly express constitutive proteasome (e.g., HT29) or immunoproteasome (e.g., THP1). Again, the inhibitory preference is then based on the EC50 ratio (Lysate ratio).

Elisa ratio (beta5:LMP7) [1] | 20 S ratio (const:immuno) [2] | Lysate ratio (HT29:Sultan/Thp1) [3] | ELISA ratio (EC50 β5 antibody : LMP7 antibody) ([1]; RPMI-8226 cells treated with 0.1 nM to 1 μM) | Compound
>5.0 | >2.0 | >3.0 | – | CC1(C(=O)[C@H](Cc2ccccc2)NC(=O)[C@H](Cc2ccccc2)NC(=O)[C@H](CCC(N)=O)NC(=O)OCc2ccccc2)CO1 (some centres unmarked)
>5.0 | >1.0 | >2.0 | – | C[C@H](NC(=O)OCc1ccccc1)C(=O)N[C@@H](Cc1c[nH]c2ccccc12)C(=O)N[C@@H](Cc1ccccc1)C(=O)C1(C)CO1 (some centres unmarked)
<0.5 | <0.5 | <0.5 | – | CC(C)C[C@H](NC(=O)CN1CCOCC1)C(=O)N[C@@H](Cc1ccccc1)C(=O)N[C@@H](CC(C)C)C(=O)C1(C)CO1 (some centres unmarked)
– | – | <0.5 | – | COc1ccc(NC(=S)N[C@@H](CC(C)C)C(=O)N[C@@H](Cc2ccccc2)C(=O)N[C@@H](CC(C)C)C(=O)C2(C)CO2)cc1 (some centres unmarked)
>1.0 | >1.0 | >5.0 | – | CC1(C(=O)[C@H](Cc2ccccc2)NC(=O)[C@H](Cc2c[nH]c3ccccc23)NC(=O)[C@H](CC(N)=O)NC(=O)OCc2ccccc2)CO1 (some centres unmarked)
>2.0 | >1.0 | >3.0 | – | C[C@H](NC(=O)OCc1ccccc1)C(=O)N[C@@H](Cc1ccc(C(F)(F)F)cc1)C(=O)N[C@@H](Cc1ccccc1)C(=O)C1(C)CO1 (some centres unmarked)
>3.0 | >1.0 | >1.0 | – | C[C@H](NC(=O)OCc1ccccc1)C(=O)N[C@@H](Cc1cn(C)c2ccccc12)C(=O)N[C@@H](Cc1ccccc1)C(=O)C1(C)CO1 (some centres unmarked)
>3.0 | >2.0 | >5.0 | – | C[C@H](NC(=O)OCc1ccccc1)C(=O)N[C@@H](Cc1c[nH]c2ccccc12)C(=O)N[C@H](C(=O)C1(C)CO1)c1ccccc1 (some centres unmarked)
>3.0 | >5.0 | >3.0 | – | CC(NC(=O)OCc1ccccc1)C(=O)N[C@@H](Cc1ccccc1)C(=O)N[C@@H](Cc1ccc(O)cc1)C(=O)C1(C)CO1 (some centres unmarked)
<0.5 | <0.5 | <1.0 | – | CC(C)CC(NC(=O)OCc1ccccc1)C(=O)N[C@@H](CC(C)C)C(=O)N[C@@H](Cc1ccccc1)C(=O)C1(C)CO1 (some centres unmarked)
>2.0 | >3.0 | >5.0 | – | CC1(C(=O)[C@H](Cc2ccccc2)NC(=O)[C@H](Cc2ccccc2)NC(=O)CNC(=O)OCc2ccccc2)CO1 (some centres unmarked)
>2.0 | >5.0 | >3.0 | – | CC[C@H](C)[C@@H](NC(=O)OCc1ccccc1)C(=O)N[C@@H](Cc1ccccc1)C(=O)N[C@@H](Cc1ccccc1)C(=O)C1(C)CO1 (some centres unmarked)
>3.0 | >5.0 | >5.0 | – | CC[C@@H](NC(=O)OCc1ccccc1)C(=O)N[C@@H](Cc1ccccc1)C(=O)N[C@@H](Cc1ccccc1)C(=O)C1(C)CO1 (some centres unmarked)
– | – | <0.5 | – | CC(C)CC(NC(=O)Nc1ccccc1)C(=O)N[C@@H](Cc1ccccc1)C(=O)N[C@@H](CC(C)C)C(=O)C1(C)CO1 (some centres unmarked)
– | <0.5 | – | – | C[C@H](NC(=O)OCc1ccccc1)C(=O)N[C@@H](Cc1c[nH]c2ccccc12)C(=O)N[C@@H](C)C(=O)C1(C)CO1 (some centres unmarked)
– | <0.5 | – | – | CC(C)C[C@H](NC(=O)[C@H](Cc1c[nH]c2ccccc12)NC(=O)[C@H](C)NC(=O)OCc1ccccc1)C(=O)C1(C)CO1 (some centres unmarked)
– | – | <0.5 | – | Cc1ccc(CCC(=O)N[C@@H](CC(C)C)C(=O)N[C@@H](Cc2ccccc2)C(=O)N[C@@H](CC(C)C)C(=O)C2(C)CO2)cc1 (some centres unmarked)
<1.0 | – | – | – | CC[C@@H](C)C(NC(=O)[C@H](Cc1ccccc1)NC(=O)C(C)NC(=O)OCc1ccccc1)C(=O)C1(C)CO1 (some centres unmarked)
– | – | <0.5 | – | COc1ccc(NC(=O)NC(CC(C)C)C(=O)N[C@@H](Cc2ccccc2)C(=O)N[C@@H](CC(C)C)C(=O)C2(C)CO2)cc1 (some centres unmarked)
>1.0 | >1.0 | >5.0 | – | CC(NC(=O)OCc1ccccc1)C(=O)N[C@@H](Cc1ccccc1)C(=O)N[C@H](C(=O)C1(C)CO1)c1ccccc1 (some centres unmarked)
>5.0 | >1.0 | >2.0 | – | CC(NC(=O)OCc1ccccc1)C(=O)N[C@@H](Cc1c[nH]c2ccccc12)C(=O)N[C@@H](Cc1ccccc1)C(=O)C1(C)CO1 (some centres unmarked)
<0.5 | <0.5 | <0.5 | – | CC(C)CC(NC(=O)OCc1ccccc1)C(=O)N[C@@H](CC(C)C)C(=O)N[C@@H](CC(C)C)C(=O)C1(C)CO1 (some centres unmarked)
>3.0 | >2.0 | >2.0 | – | CC(NC(=O)OCc1ccccc1)C(=O)N[C@@H](Cc1cccs1)C(=O)N[C@@H](Cc1ccccc1)C(=O)C1(C)CO1 (some centres unmarked)
>5.0 | >3.0 | >3.0 | – | CC(NC(=O)OCc1ccccc1)C(=O)N[C@@H](Cc1c[nH]c2ccccc12)C(=O)N[C@@H](Cc1ccc(O)cc1)C(=O)C1(C)CO1 (some centres unmarked)
>1.0 | >2.0 | >3.0 | – | CC1(C(=O)[C@H](Cc2ccccc2)NC(=O)[C@H](Cc2c[nH]c3ccccc23)NC(=O)C(CSCc2ccccc2)NC(=O)OCc2ccccc2)CO1 (some centres unmarked)
>3.0 | >1.0 | >1.0 | – | CC(NC(=O)OCc1ccccc1)C(=O)N[C@@H](Cc1csc2ccccc12)C(=O)N[C@@H](Cc1ccccc1)C(=O)C1(C)CO1 (some centres unmarked)
– | – | – | greater than 20 | CC[C@@H](NC(=O)OCc1ccccc1)C(=O)N[C@@H](Cc1c[nH]c2ccccc12)C(=O)N[C@@H](Cc1ccccc1)C(=O)C1(C)CO1 (some centres unmarked) [inhibitor (B)]

From patent US8609654B1, “Compounds for enzyme inhibition” (Onyx Therapeutics, Inc., priority 2006, dated 2013)
